Experimental data published in US9193736B2, “PDE 10a inhibitors for the treatment of type II diabetes” (Janssen Pharmaceutica, NV, priority 2013, dated 2015).
Structures can show the parent of a compound that is named as a salt.

Assays:
[1] = biological target: Human recombinant PDE10A2 (Homo sapiens (Human), UniProt Q9Y233); test: In vitro hPDE10a: human recombinant PDE10A2 scintillation proximity assay, IC50; type: biochemical; conditions: human recombinant PDE10A2, SPA, 60 nM cAMP; read-out: hPDE10a2 IC50
Experimental: Cells were harvested and the phosphodiesterase protein was purified by metal chelate chromatography on Ni-sepharose 6FF. The affinity of the compounds of Formula (I) for phophodiesterases (PDE) was measured by a scintillation proximity assay (SPA). PDE Yttrium Silicate SPA beads allow PDE activity to be measured by direct binding of the primary phosphate groups of non-cyclic AMP or GMP to the beads via a complex iron chelation mechanism. The amount of bound tritiated product ([^3H]-AMP) is measured by liquid scintillation counting. The compounds were dissolved and diluted in 100% DMSO in polystyrene plates to a concentration of 100-fold the final concentration in the assay. […] After incubation, the reaction was stopped with 20 μL of stop solution, consisting of PDE SPA beads (17.8 mg beads/mL in 18 mM zinc sulphate). […] To measure the low control, no enzyme was added to the reaction mixture. Data were calculated as the percentage of inhibition of total activity measured in the absence of test compound (% control). […] For compounds tested more than once, the data points were aggregated.

[2] = biological target: Rat recombinant PDE10a (rPDE10a) (Rattus norvegicus (Rat), UniProt Q9QYJ6); test: In vitro assay PDE10a: rat recombinant PDE10a SPA with 3H-cAMP substrate, IC50; type: biochemical; conditions: 60 nM cAMP, read-out: rPDE10a2 IC50
Experimental: In Vitro Assay PDE10a Rat recombinant PDE10a (rPDE10a) was expressed in Sf9 cells using a recombinant rPDE10a baculovirus construct. Cells were harvested after 48 h of infection and the rPDE10a protein was purified by metal chelate chromatography on Ni-sepharose 6FF. Tested compounds were dissolved and diluted in 100% DMSO to a concentration 100 fold of the final concentration in the assay. […] The reaction was incubated for 60 min at rt. After incubation, the reaction was stopped with 20 μL of 17.8 mg/mL PDE SPA beads. […] For blank values the enzyme was omitted from the reaction and replaced by incubation buffer.

Chain of Human recombinant PDE10A2 (Q9Y233 267-1055): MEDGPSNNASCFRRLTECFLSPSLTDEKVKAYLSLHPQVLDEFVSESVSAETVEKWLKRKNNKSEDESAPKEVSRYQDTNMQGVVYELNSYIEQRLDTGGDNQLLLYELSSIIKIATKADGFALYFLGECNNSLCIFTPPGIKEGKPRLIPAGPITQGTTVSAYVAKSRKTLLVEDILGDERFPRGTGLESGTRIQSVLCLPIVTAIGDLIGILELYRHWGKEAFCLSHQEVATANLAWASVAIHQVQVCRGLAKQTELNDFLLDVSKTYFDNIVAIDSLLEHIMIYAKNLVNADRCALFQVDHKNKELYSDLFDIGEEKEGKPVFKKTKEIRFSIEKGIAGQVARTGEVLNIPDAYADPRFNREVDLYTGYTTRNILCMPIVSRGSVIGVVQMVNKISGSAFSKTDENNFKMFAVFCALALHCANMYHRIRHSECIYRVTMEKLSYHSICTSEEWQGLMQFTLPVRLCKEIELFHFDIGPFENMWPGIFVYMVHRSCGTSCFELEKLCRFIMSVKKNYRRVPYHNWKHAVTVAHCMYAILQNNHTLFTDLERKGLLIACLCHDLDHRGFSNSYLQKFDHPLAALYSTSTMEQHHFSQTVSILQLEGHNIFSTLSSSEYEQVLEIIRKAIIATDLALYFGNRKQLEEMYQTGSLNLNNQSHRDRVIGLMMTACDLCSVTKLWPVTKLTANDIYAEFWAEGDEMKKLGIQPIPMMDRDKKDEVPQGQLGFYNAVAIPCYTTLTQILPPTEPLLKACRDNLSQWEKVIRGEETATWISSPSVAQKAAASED
Chain of Rat recombinant PDE10a (rPDE10a) (Q9QYJ6 whole entry): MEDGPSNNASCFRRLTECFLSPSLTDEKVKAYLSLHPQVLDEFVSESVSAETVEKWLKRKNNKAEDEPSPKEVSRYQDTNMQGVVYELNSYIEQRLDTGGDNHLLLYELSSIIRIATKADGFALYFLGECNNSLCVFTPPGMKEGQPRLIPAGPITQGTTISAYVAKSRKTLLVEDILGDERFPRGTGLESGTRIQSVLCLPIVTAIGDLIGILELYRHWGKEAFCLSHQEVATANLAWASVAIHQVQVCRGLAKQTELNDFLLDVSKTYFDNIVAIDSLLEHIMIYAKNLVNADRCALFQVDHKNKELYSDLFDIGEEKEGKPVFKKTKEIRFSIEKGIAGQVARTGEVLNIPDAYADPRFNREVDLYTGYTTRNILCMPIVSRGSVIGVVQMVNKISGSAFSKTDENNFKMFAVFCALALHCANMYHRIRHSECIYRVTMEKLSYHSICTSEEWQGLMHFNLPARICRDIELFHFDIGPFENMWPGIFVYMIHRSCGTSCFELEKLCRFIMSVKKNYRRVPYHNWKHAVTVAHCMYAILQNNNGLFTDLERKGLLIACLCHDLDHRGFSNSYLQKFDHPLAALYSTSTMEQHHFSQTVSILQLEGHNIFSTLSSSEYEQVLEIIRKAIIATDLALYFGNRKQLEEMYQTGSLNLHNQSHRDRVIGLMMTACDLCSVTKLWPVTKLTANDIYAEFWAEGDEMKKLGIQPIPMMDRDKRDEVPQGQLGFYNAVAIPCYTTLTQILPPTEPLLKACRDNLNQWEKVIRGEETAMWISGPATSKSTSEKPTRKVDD

| Compound | IC50 [1] | IC50 [2] |
| --- | --- | --- |
| c1ccc2nc(CNc3nc4c(N5CCOCC5)ccnn4c3-c3ccc(N4CCNCC4)nc3)ccc2c1 [Cpd 11, 8-Morpholino-3-(6-(piperazin-1-yl)pyridin-3-yl)-N-(quinolin-2-ylmethyl)imidazo[1,2-b]pyridazin-2-amine trifluoroacetic acid salt] | 55 nM | 25 nM |
| c1ccc2nc(CCc3nc4c(N5CCOCC5)ccnn4c3-c3ccc(N4CCNCC4)nc3)ccc2c1 [Cpd 13, 4-(3-(6-(piperazin-1-yl)pyridin-3-yl)-2-(2-(quinolin-2-yl)ethyl)imidazo[1,2-b]pyridazin-8-yl)morpholine trifluoroacetic acid salt] | 20 nM | 14 nM |
| c1ccc2ncc(OCCc3nc4c(N5CCOCC5)ccnn4c3-c3ccc(N4CCNCC4)nc3)cc2c1 [Cpd 14, 4-(3-(6-(Piperazin-1-yl)pyridin-3-yl)-2-(2-(quinolin-3-yloxy)ethyl)imidazo[1,2-b]pyridazin-8-yl)morpholine trifluoroacetic acid salt] | 955 nM | 776 nM |
| CN1CCN(c2ccc(-c3c(CN(C)c4ccc5ccccc5n4)nc4c(N5CCOCC5)ccnn34)cn2)CC1 [Cpd 15, N-Methyl-N-((3-(6-(4-methylpiperazin-1-yl)pyridin-3-yl)-8-morpholinoimidazo[1,2-b]pyridazin-2-yl)methyl)quinolin-2-amine trifluoroacetic acid salt] | 676 nM | 269 nM |
| Oc1ccc(-c2c(/C=C/c3ccc4ccccc4n3)nc3c(N4CCOCC4)ccnn23)cn1 [Cpd 16, (E)-5-(8-Morpholino-2-(2-(quinolin-2-yl)vinyl)imidazo[1,2-b]pyridazin-3-yl)pyridin-2-ol] | 6 nM | 6 nM |
| Nc1ccc(-c2c(/C=C/c3ccc4ccccc4n3)nc3c(N4CCOCC4)ccnn23)cn1 [Cpd 18, (E)-5-(8-Morpholino-2-(2-(quinolin-2-yl)vinyl)imidazo[1,2-b]pyridazin-3-yl)pyridin-2-amine] | 6 nM | 3 nM |
| C(=C\c1nc2c(N3CCOCC3)ccnn2c1-c1ccc(-c2nnn[nH]2)nc1)/c1ccc2ccccc2n1 [Cpd 19, 2-[(E)-2-{8-Morpholin-4-yl-3-[6-(1H-tetrazol-5-yl)pyridin-3-yl]imidazo[1,2-b]pyridazin-2-yl}ethenyl]quinoline] | 2 nM | 3 nM |
| C(=C\c1nc2c(N3CCOCC3)ccnn2c1-c1ccc(Sc2cnn[nH]2)nc1)/c1ccc2ccccc2n1 [Cpd 23, 2-[(E)-2-{8-Morpholin-4-yl-3-[6-(1H-1,2,3-triazol-5-ylsulfanyl)pyridin-3-yl]imidazo[1,2-b]pyridazin-2-yl}ethenyl]quinoline] | 8 nM | 6 nM |
| O=C(O)CN1CCC(c2c(/C=C/c3ccc4ccccc4n3)nc3c(N4CCOCC4)ccnn23)CC1 [Cpd 29, (E)-2-(4-(8-Morpholino-2-(2-(quinolin-2-yl)vinyl)imidazo[1,2-b]pyridazin-3-yl)piperidin-1-yl)acetic acid trifluoroacetic acid salt] | 39 nM | 49 nM |
| c1ccc2nc(CCc3nc4c(N5CCOCC5)ccnn4c3-c3ccc(-c4nnn[nH]4)nc3)ccc2c1 [Cpd 31, 4-(3-(6-(1H-Tetrazol-5-yl)pyridin-3-yl)-2-(2-(quinolin-2-yl)ethyl)imidazo[1,2-b]pyridazin-8-yl)morpholine trifluoroacetic acid salt] | 1 nM | < 1 nM |
| c1ccc2nc(SCc3nc4c(N5CCOCC5)ccnn4c3-c3ccc(-c4nnn[nH]4)nc3)ccc2c1 [Cpd 32, 4-(3-(6-(1H-Tetrazol-5-yl)pyridin-3-yl)-2-((quinolin-2-ylthio)methyl)imidazo[1,2-b]pyridazin-8-yl)morpholine trifluoroacetic acid salt] | 2 nM | 1 nM |
| O=c1[nH]c(-c2ccc(-c3c(/C=C/c4ccc5ccccc5n4)nc4c(N5CCOCC5)ccnn34)cn2)no1 [Cpd 34, (E)-3-(5-(8-Morpholino-2-(2-(quinolin-2-yl)vinyl)imidazo[1,2-b]pyridazin-3-yl)pyridin-2-yl)-1,2,4-oxadiazol-5(4H)-one] | 3 nM | 2 nM |
| O=c1[nH]c(-c2ccc(-c3c(COc4ccc5ccccc5n4)nc4c(N5CCOCC5)ccnn34)cn2)no1 [Cpd 35, 3-(5-(8-Morpholino-2-((quinolin-2-yloxy)methyl)imidazo[1,2-b]pyridazin-3-yl)pyridin-2-yl)-1,2,4-oxadiazol-5(4H)-one] | 5 nM | 7 nM |
| O=c1[nH]c(-c2ccc(-c3c(CCc4ccc5ccccc5n4)nc4c(N5CCOCC5)ccnn34)cn2)no1 [Cpd 37, 3-(5-(8-Morpholino-2-(2-(quinolin-2-yl)ethyl)imidazo[1,2-b]pyridazin-3-yl)pyridin-2-yl)-1,2,4-oxadiazol-5(4H)-one] | 1 nM | < 1 nM |
| CS(=O)(=O)NC(=O)Nc1ccc(-c2c(CCc3ccc4ccccc4n3)nc3c(N4CCOCC4)ccnn23)cc1 [Cpd 51, N-({4-[8-Morpholin-4-yl-2-(2-quinolin-2-ylethyl)imidazo[1,2-b]pyridazin-3-yl]phenyl}carbamoyl)methanesulfonamide] | 6 nM | 4 nM |
| O=c1ncn(-c2ccc(-c3c(/C=C/c4ccc5ccccc5n4)nc4c(N5CCOCC5)ccnn34)cn2)[nH]1 [Cpd 56, (E)-1-(5-(8-Morpholino-2-(2-(quinolin-2-yl)vinyl)imidazo[1,2-b]pyridazin-3-yl)pyridin-2-yl)-1,2-dihydro-1,2,4-triazol-3-one trifluoroacetic acid salt] | 4 nM | 7 nM |
| O=C(O)c1ccc(-c2c(/C=C/c3ccc4ccccc4n3)nc3c(N4CCOCC4)ccnn23)s1 [Cpd 57, (E)-5-(8-Morpholino-2-(2-(quinolin-2-yl)vinyl)imidazo[1,2-b]pyridazin-3-yl)thiophene-2-carboxylic acid] | 1 nM | 1 nM |
| O=C(O)c1ccc(-c2c(/C=C/c3ccc4ccccc4n3)nc3c(N4CCOCC4)ccnn23)o1 [Cpd 58] | 2 nM | 4 nM |
| O=c1ncn(-c2ccc(-c3c(CCc4ccc5ccccc5n4)nc4c(N5CCOCC5)ccnn34)cc2)[nH]1 [Cpd 59, 1-(4-(8-Morpholino-2-(2-(quinolin-2-yl)ethyl)imidazo[1,2-b]pyridazin-3-yl)phenyl)-1,2-dihydro-1,2,4-triazol-3-one trifluoroacetic acid salt] | 5 nM | 6 nM |
| O=c1[nH]nnn1-c1ccc(-c2c(CCc3ccc4ccccc4n3)nc3c(N4CCOCC4)ccnn23)cc1 [Cpd 62, 1-(4-(8-Morpholino-2-(2-(quinolin-2-yl)ethyl)imidazo[1,2-b]pyridazin-3-yl)phenyl)-1H-tetrazol-5(4H)-one] | 4 nM | 9 nM |
| O=C(O)CNC(=O)c1ccc(-c2c(/C=C/c3ccc4ccccc4n3)nc3c(N4CCOCC4)ccnn23)cc1 [Cpd 66, (E)-2-(4-(8-Morpholino-2-(2-(quinolin-2-yl)vinyl)imidazo[1,2-b]pyridazin-3-yl)benzamido)acetic acid] | 9 nM | 5 nM |
| O=C(O)CNC(=O)c1ccc(-c2c(CCc3ccc4ccccc4n3)nc3c(N4CCOCC4)ccnn23)cc1 [Cpd 68, 2-(4-(8-Morpholino-2-(2-(quinolin-2-yl)ethyl)imidazo[1,2-b]pyridazin-3-yl)benzamido)acetic acid trifluoroacetic acid salt] | 5 nM | 6 nM |
